Measured values: ChEMBL document CHEMBL1142799, “Comparison of different heterocyclic scaffolds as substrate analog PDE5 inhibitors” (Bioorg Med Chem Lett, 2005)

Experiments:
Phosphodiesterase 1 = Phosphodiesterase 1 (Homo sapiens, UniProt P54750+Q01064+Q14123); assay: Inhibition of phosphodiesterase 1; format: protein assay
[1] = target: cGMP-specific 3',5'-cyclic phosphodiesterase (Homo sapiens, UniProt O76074)
Description: Inhibition of phosphodiesterase 5

Row | SMILES | IC50 (Phosphodiesterase 1) [nM] | IC50 [1] [nM]
1 | CCCc1nn(C)c2c(=O)[nH]c(-c3ccccc3OCC)nc12 | 790 | –
2 | CCCc1nc(C)n2c(O)nc(-c3ccccc3OCC)nc12 | 200 | 40
3 | CCCc1nc(C)c2c(=O)[nH]c(-c3ccccc3OCC)nn12 | 300 | –
4 | CCOc1ccccc1-c1nc(O)c2c(C)nc(C)n2n1 | 1000 | 200
5 | CCCn1cnc2c(O)nc(-c3ccccc3OCC)nc21 | 10 | –
6 | CCCn1nnc2c(O)nc(-c3ccccc3OCC)nc21 | – | 300
7 | CCOc1ccc(S(=O)(=O)N2CCN(CCO)CC2)cc1-c1nc(O)c2nnc(C3CCCC3)n2n1 | 50 | 50
8 | CCOc1ccccc1-c1nc(O)c2onc(C3CCCC3)c2n1 | 200 | 20
9 | CCCc1n[nH]c2c(O)nc(-c3ccccc3OCC)nc12 | – | 50
10 | CCOc1ccccc1-c1nc(O)c2nnc(C3CCCC3)n2n1 | 50 | 200
11 | CCCc1nc(C)c2c(=O)[nH]c(-c3cc(S(=O)(=O)N4CCN(C)CC4)ccc3OCC)nn12 | 300 | –
12 | CCOc1ccc(S(=O)(=O)N2CCN(C)CC2)cc1-c1nc2c(c(CC)nn2C2CCCC2)c(=O)[nH]1 | > 1000 | 40
13 | CCOc1ccccc1-c1nc(O)c2ncn(C3CC3)c2n1 | 1000 | 300
14 | CCOc1ccccc1-c1nc(O)c2nnn(C3CCCC3)c2n1 | 800 | 500
15 | CCOc1ccccc1-c1nc(O)n2c(C)nc(C3CCCC3)c2n1 | 40 | 20
16 | CCOc1ccccc1-c1nc(O)c2ncn(C3CCC3)c2n1 | 1000 | 100
17 | CCOc1ccccc1-c1nc(O)c2ncn(C3CCCC3)c2n1 | 500 | 50

Now from value to compound:

Row | IC50 (Phosphodiesterase 1) [nM] | IC50 [1] [nM] | SMILES
18 | > 1000 | 20 | CCCn1nc(CC)c2c(=O)[nH]c(-c3cc(S(=O)(=O)N4CCN(C)CC4)ccc3OCC)nc21
19 | 20 | 5 | CCCc1nc(C)c2c(O)nc(-c3cc(S(=O)(=O)N4CCN(CCO)CC4)ccc3OCC)nn12
20 | 500 | 10 | CCCc1nc(C)n2c(O)nc(-c3cc(S(=O)(=O)N4CCN(C)CC4)ccc3OCC)nc12
21 | 1000 | 10 | CCOc1ccc(S(=O)(=O)N2CCN(CCO)CC2)cc1-c1nc(O)c2c(C)nc(C)n2n1
22 | 30 | 10 | CCOc1ccc(S(=O)(=O)N2CCN(CCO)CC2)cc1-c1nc(O)c2onc(C3CCCC3)c2n1
23 | 30 | 5 | CCOc1ccccc1-c1nc(O)c2c(C)nc(C3CCCC3)n2n1
24 | – | 1 | CCCn1nc(C)c2c(=O)[nH]c(-c3ccccc3OCC)nc21
25 | > 1000 | 7 | CCOc1ccc(S(=O)(=O)N2CCN(C)CC2)cc1-c1nc(O)c2c(CC)nc(C3CCCC3)n2n1
26 | 30 | 10 | CCOc1ccc(S(=O)(=O)N2CCN(CCO)CC2)cc1-c1nc(O)n2c(C)nc(C3CCCC3)c2n1
27 | 10 | 5 | CCOc1ccc(S(=O)(=O)N2CCN(CCO)CC2)cc1-c1nc(O)c2c(n1)c(C1CCCC1)nn2C
28 | – | 10 | CCCn1cnc2c(O)nc(-c3cc(S(=O)(=O)N4CCN(C)CC4)ccc3OCC)nc21
29 | 1000 | 8 | CCCn1nc(C)c2c(=O)[nH]c(-c3cc(S(=O)(=O)N4CCN(C)CC4)ccc3OCC)nc21
30 | 10 | 1 | CCOc1ccc(S(=O)(=O)N2CCN(C)CC2)cc1-c1nc(O)c2c(C)nc(C3CCCC3)n2n1
31 | 10 | 1 | CCOc1ccc(S(=O)(=O)N2CCN(CCO)CC2)cc1-c1nc(O)c2c(C)nc(C3CCCC3)n2n1
32 | > 1000 | 8 | CCCc1nc(CC)c2c(O)nc(-c3cc(S(=O)(=O)N4CCN(C)CC4)ccc3OCC)nn12
